Source: patent US20060165672A1, “Fatigue reducing agent” (KANEKA CORPORATION, priority 2003, published 2006)

How the values were obtained:
[1] = Level of reduced coenzyme Q in the muscle after oral administration (HPLC, electrochemical detector); format: in vivo, male SD rats; settings: for Intramuscular level of reduced coenzyme Q (in words): after administration
Method: (§1) Reduced coenzyme Q10 obtained in the Reference Example 1 (containing about 1% of oxidized coenzyme Q10) was dissolved in soybean oil solution (reduced coenzyme Q10/soybean oil solution=20 mg/ml) and orally administered to male SD rats (6 weeks of age) at a dose of 100 mg/kg of reduced coenzyme Q10 (containing about 1% of oxidized coenzyme Q10), once a day for 5 days. Five days later, the muscles of the femoral region were collected, and coenzyme Q level in the muscle was measured. The measurement of the coenzyme Q level in the muscle was performed using HPLC. The harvested rat muscle (0.2 g) was homogenized after the addition of coenzyme Q7 (0.003 mg), ethanol (1 ml), distilled water (1 ml) and ferric chloride (0.01%), and then hexane (3 ml) was added. Coenzyme Q10 was extracted from the homogenate after shaking. After repeating this extraction operation twice, the extract was brought to dryness by evaporating hexane out, re-dissolved in 0.25 ml ethanol and injected to HPLC. HPLC condition is as follows; column: YMC-Pack (ODS-A303), detection wavelength: 275 nm, mobile phase: methanol (88%), hexane (12%), flow rate: 1 ml/min. The measurement of the ratio of reduced coenzyme Q10 and oxidized coenzyme Q10 in the muscle was carried out as follows. The harvested rat muscle (0.2 g) was homogenized after the addition of distilled water (0.2 ml) and ethanol (0.8 ml), and the homogenate was extracted by adding hexane (1.2 ml). After evaporating hexane under a stream of nitrogen, the extract was re-dissolved in ethanol (0.2 ml) and injected to HPLC. The condition of the HPLC operation was the same as the above except that the electrochemical detector was used. Soybean oil was administered to the control group.
The level of reduced coenzyme Q in the muscle was measured after administration of reduced coenzyme Q10 in a manner similar to (Example 1).
The level of reduced coenzyme Q in the muscle was measured after administration of oxidized coenzyme Q10 in a manner similar to (Comparative Example 1).

[2] = Coenzyme Q level in the muscle after oral administration for 5 days (HPLC); format: in vivo, male SD rats
Method: as §1
Similarly oxidized coenzyme Q10 was administered and then the coenzyme Q level in the muscle was measured.

[3] = system: male SD rats (7 weeks of age); assay: Tread mill test in young rats (maximum running time); format: in vivo, rat; settings: for Maximum Running Time, Time prolonged: after minus before administration; for Maximum Running Time, After administration, relative to solvent control (100) / Maximum Running Time, Time prolonged, relative to solvent control (100) / Maximum Running Time, Before administration, relative to solvent control (100): value in parentheses; for Maximum Running Time, After administration: 2 hours after 300 mg/kg oral dose; for Maximum Running Time, Before administration: baseline before 300 mg/kg oral dose
Method: (§2) The anti-fatigue effect of reduced coenzyme Q10 (note that it contained about 1% of oxidized coenzyme Q10) was evaluated in male SD rats (7 weeks of age, n=10) using a tread mill. A rat was forced to run at a speed of 10 m/min on the tread mill machine (Type NK-73-4, Natsume Seisakusho Co., Ltd.). Then the speed was increased stepwise by 5 m/min in every 3 min, and the time when the rat could no longer run was measured (the maximum running time). The soybean oil solution of reduced coenzyme Q10 according to the Reference Example 1 (reduced coenzyme Q10/soybean oil solution=20 mg/ml) was prepared as a test substance and orally administered to rats as reduced coenzyme Q10 (note that it contained about 1% of oxidized coenzyme Q10) with a dose of 300 mg/kg. The maximum running times were measured before administration and 2 hours after administration and a prolongation of the maximum running time was calculated. Soybean oil was administered to the control group.
The anti-fatigue effect of oxidized coenzyme Q10 was evaluated in young rats in a manner similar to (Example 3).

[4] = system: male SD rats (61 to 63 weeks of age); assay: Tread mill test in aged rats (maximum running time, crossover); format: in vivo, rat; settings: for Maximum running time of aged rats (in words) / Maximum Running Time, Time prolonged / Maximum Running Time, After administration, relative to solvent control (100): 300 mg/kg oral; for Maximum Running Time, Time prolonged: after minus before administration; for Maximum Running Time, After administration, relative to solvent control (100) / Maximum Running Time, Before administration, relative to solvent control (100): value in parentheses; for Maximum Running Time, After administration: after 300 mg/kg oral dose; for Maximum Running Time, After administration / Maximum Running Time, Before administration: crossover; for Maximum Running Time, Before administration: baseline before 300 mg/kg oral dose
Method: as §2
The anti-fatigue effect of reduced coenzyme Q10 (containing about 1% of oxidized coenzyme Q10) was evaluated in male SD rats (61 to 63 weeks of age, n=7) in a manner similar to (Example 3). This experiment was performed using a crossover method. […]

[5] = compared with oxidized coenzyme Q10, Japanese Patent Laid-Open No. 10-109933; cited from earlier work
[6] = femoral muscle, 100 mg/kg orally once a day for 5 days
[7] = value in parentheses, control group = 100
[8] = femoral muscle, 100 mg/kg orally once a day for 5 days, rats 6 weeks of age
[9] = value in parentheses, control group = 100, 100 mg/kg orally, 5 days

| Structure (SMILES) | Intramuscular level of reduced coenzyme Q (in words) [1] | Level of Reduced Coenzyme Q in Muscle, Q9 [1, 6] [µg/g] | Level of Reduced Coenzyme Q in Muscle, Total CoQ [1, 6] [µg/g] | Level of Reduced Coenzyme Q in Muscle, Q9, relative to control group (100) [1, 7] | Level of Reduced Coenzyme Q in Muscle, Total CoQ, relative to control group (100) [1, 7] | Level of Coenzyme Q in Muscle, Q9 [2, 8] [µg/g] | Level of Coenzyme Q in Muscle, Total CoQ [2, 8] [µg/g] | Level of Coenzyme Q in Muscle, Q9, relative to control group (100) [2, 9] | Level of Coenzyme Q in Muscle, Total CoQ, relative to control group (100) [2, 9] | Maximum Running Time, Time prolonged ([3]; 300 mg/kg oral) [s] | Maximum Running Time, After administration, relative to solvent control (100) ([3]; 300 mg/kg oral) | Maximum Running Time, Time prolonged, relative to solvent control (100) ([3]; 300 mg/kg oral) | Maximum Running Time, After administration [3] [s] | Maximum Running Time, Before administration [3] [s] | Maximum Running Time, Before administration, relative to solvent control (100) [3] | Maximum running time of aged rats (in words) [4] | Maximum Running Time, Time prolonged [4] [s] | Maximum Running Time, After administration, relative to solvent control (100) [4] | Maximum Running Time, After administration [4] [s] | Maximum Running Time, Before administration [4] [s] | also measured |
| --- | --- | --- | --- | --- | --- | --- | --- | --- | --- | --- | --- | --- | --- | --- | --- | --- | --- | --- | --- | --- | --- |
| COC1=C(OC)C(=O)C(C/C=C(\C)CC/C=C(\C)CC/C=C(\C)CC/C=C(\C)CC/C=C(\C)CC/C=C(\C)CC/C=C(\C)CC/C=C(\C)CC/C=C(\C)CCC=C(C)C)=C(C)C1=O [Oxidized Coenzyme Q10, oxidized coenzyme Q10, reference compound] | decreased | 2.34 ± 0.42 | 2.45 ± 0.44 | (71*) | (68*) | 12.84 ± 2.03 | 14.18 ± 2.18 | (133) | (137) | 190 ± 76 | (108**) | (339**) | 1733 ± 107 | 1543 ± 99 | (100) | no prolongation effect | 14 ± 43 | (105) | 875 ± 108 | 861 ± 123 | Level of Reduced Coenzyme Q in Muscle, Q10, relative to control group (100) ([1]; rat, in vivo): (34**); Anti-fatigue effect in young rats (in words, compared with reduced coenzyme Q10) ([3]; 300 mg/kg oral): about the same as that of reduced coenzyme Q10; Maximum Running Time, Before administration, relative to solvent control (100) [4]: (100) |
| COc1c(O)c(C)c(C/C=C(\C)CC/C=C(\C)CC/C=C(\C)CC/C=C(\C)CC/C=C(\C)CC/C=C(\C)CC/C=C(\C)CC/C=C(\C)CC/C=C(\C)CCC=C(C)C)c(O)c1OC [Reduced Coenzyme Q10, reduced coenzyme Q10] | increased | 5.32 ± 1.07 | 5.71 ± 1.16 | (162*) | (159*) | 15.82 ± 2.89 | 17.39 ± 3.09 | (164*) | (168*) | 196 ± 127 | (108*) | (349**) | 1719 ± 160 | 1523 ± 97 | (99) | significantly prolonged | 97 ± 28 | (115) | 958 ± 52 | 861 ± 123 | Level of Reduced Coenzyme Q in Muscle, Q10 [1, 6]: 0.39 ± 0.24 µg/g; Level of Reduced Coenzyme Q in Muscle, Q10, relative to control group (100) [1, 7]: (122); Endogenous coenzyme Q (in words) ([2]; after administration, endogenous = synthesized in vivo): increase of endogenous coenzyme Q; Level of Coenzyme Q in Muscle, Q10 [2, 8]: 1.57 ± 0.21 µg/g; Level of Coenzyme Q in Muscle, Q10, relative to control group (100) [2, 9]: (215**); Maximum running time of rats (in words) ([3]; 300 mg/kg oral): significantly prolonged; Plasma level of coenzyme Q after oral administration (in words) [5]: raised the plasma level of coenzyme Q more than oral administration of oxidized coenzyme Q10; Maximum Running Time, Before administration, relative to solvent control (100) [4]: (100) |
